Data from patent US8415469B2, “Compounds and methods for kinase modulation, and indications therefor” (Plexxikon Inc., priority 2005, dated 2013).

Tests used:
Assay type in all cases: biochemical
B-Raf V600E = target: T1, B-Raf V600E (Homo sapiens, UniProt P15056, V600E); test: AlphaScreen kinase assay, B-Raf V600E; details: read-out: IC50, activity toward kinase B-Raf V600E
T1 construct: P4254. pFastBacBD-CDC37 BRAF D437-K722-X, V600E; His6 with pFastBac HT leader (TEV site) (N); made in house; host or cells: Sf9 (baculovirus; chaperone CDC37 co-expressed)
Text: AlphaScreen assay was used to screen additional kinases. The assay is similarly dependent on the phosphorylation of a peptide substrate. In this assay, an antibody that recognizes phosphorylated substrate is bound to an acceptor bead. The peptide substrate is attached to biotin, which binds to a donor head that contains streptavidin. Thus phosphorylated substrate is bound by antibody and streptavidin, bringing the donor and acceptor heads into close proximity when kinase is not inhibited. The donor produces singlet oxygen which results in emission from the acceptor when they are in close proximity. Conversely, when kinase is inhibited, the donor and acceptor beads are not associated and the emission from the acceptor is reduced.
AlphaScreen assays were done using compounds dissolved in DMSO to a concentration of 20 mM. The compounds were diluted accordingly to the desired final concentrations in each sample well, using 1:3 serial dilution for a total of 8 concentration points. Plates were prepared such that each kinase reaction is 20 μl in 1× kinase buffer, 5% DMSO and 10 μM ATP. After incubation of the kinase reaction for 1 hour at room temperature, 5 μl of donor beads in stop buffer (50 mM EDTA in 1× kinase buffer) was added, the sample was mixed and incubated for 20 minutes at room temperature before adding 5 μl of acceptor beads in stop buffer. The samples were incubated for 60 minutes at room temperature and the signal per well was read on AlphaQuest reader.

Fms = target: T2, Fms (Homo sapiens, UniProt P07333); test: AlphaScreen kinase assay, Fms; details: read-out: IC50, activity toward kinase Fms
T2 construct: purchased Upstate Biotechnology

Src = target: T3, Src (Homo sapiens, UniProt P12931); test: AlphaScreen kinase assay, Src; details: read-out: IC50, activity toward kinase Src
T3 construct: P1144. pET-N6 BI-PTP SRC V86-L536-X; made in house

Stk6 = target: T4, Stk6 (Homo sapiens, UniProt O14965); test: Z'-Lyte FRET kinase assay (Invitrogen), Stk6; details: read-out: IC50, activity toward kinase Stk6
T4 construct: purchased Invitrogen (Carlsbad, Calif.), screening service
T4 sequence (O14965 1-403): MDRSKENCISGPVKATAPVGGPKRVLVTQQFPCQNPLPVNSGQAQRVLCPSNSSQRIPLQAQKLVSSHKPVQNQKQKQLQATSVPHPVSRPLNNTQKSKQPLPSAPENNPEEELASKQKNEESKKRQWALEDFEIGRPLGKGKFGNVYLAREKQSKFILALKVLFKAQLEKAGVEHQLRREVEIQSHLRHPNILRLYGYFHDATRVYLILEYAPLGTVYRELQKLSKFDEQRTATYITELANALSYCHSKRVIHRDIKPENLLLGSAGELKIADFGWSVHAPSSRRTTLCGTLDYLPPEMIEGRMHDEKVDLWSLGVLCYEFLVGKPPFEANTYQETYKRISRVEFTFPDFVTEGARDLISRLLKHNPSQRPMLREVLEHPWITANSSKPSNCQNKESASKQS

Yes = target: T5, Yes (Homo sapiens, UniProt P07947); test: Z'-Lyte FRET kinase assay (Invitrogen), Yes; details: read-out: IC50, activity toward kinase Yes
T5 construct: purchased Invitrogen (Carlsbad, Calif.), screening service
Text: The effect of potential modulators of kinase activity can be measured in a variety of different assays known in the art. For example, direct radiometric, indirect FRET or AlphaScreen assays may be used to assess the level of phosphorylation of a substrate in the presence of test compounds in order to determine the inhibitory affect of the compound on the kinase. Invitrogen (Carlsbad, Calif.) uses a FRET based assay for Btk, EGFR, EphB2, Flt3, lrak4, Kdr, MAP2K1, MAPKAPK2, PDGFRB, PKC theta, Stk6 and Yes. For these assays, compounds of the invention were screened by Invitrogen using Z′-Lyte™ kinase assay.
Briefly, the Invitrogen kinase assay involves use of a specific peptide substrate optimized for each kinase, containing a fluorophore at each end that make up the FRET pair. The peptide sensitivity to proteolytic cleavage depends on phosphorylation of the peptide. Non-phosphorylated peptide is cleaved by a protease while peptide phosphorylated by the kinase is not cleaved. Cleavage of the peptide disrupts the FRET between the donor (coumarin) and acceptor (fluorescein) fluorophores, resulting in an increase in the ratio of donor emission to acceptor emission. The emission ratio of coumarin to fluorescein is used to assess the reaction progress. The extent of phosphorylation is determined from the emission ratio, which is low when the kinase is active (phosphorylated peptide is not cleaved, FRET pair connected) or higher for inhibited kinase (non-phosphorylated peptide is cleaved, FRET pair separated). Thus, the assay involves a kinase reaction in the presence of varying concentrations of a given compound, a development reaction with site specific protease, and detection of the fluorescent emission ratio of coumarin and fluorscein. […] Reaction conditions for each kinase are determined to provide optimal reaction times, incubation temperature, kinase and ATP concentrations. Test samples are made up in 1× kinase buffer (50 mM HEPES pH 7.5, 50 mM MgCl2, 5 mM EGTA, 0.05% BRIJ-35) and compound at desired concentration prepared in DMSO such that the final DMSO is 1%. […] Typically, assay plates are prepared to 10 μl final volume per sample, adding 2.5 μl of compound at 4× the desired concentration in 4% DMSO (serial dilution of compound provides concentration curve), 5 μl of the desired kinase mixed with Z′-LYTE™ peptide substrate (2× in 2× kinase buffer, final peptide at 2 μM), and 2.5 μl of 4×ATP solution. All kinase except for MAP2K1 were at 10 μM ATP in the kinase reaction, while MAP2K1 was at 100 μM. Samples are mixed and the kinase reaction is incubated 1 hour at room temperature, after which 5 μl of development solution is added and mixed. After incubation for another 1 hour at room temperature, 5 μl of stop reagent is added to each sample and mixed. The fluorescence signals are measured to determine the emission ratio.

B-Raf = target: T6, B-Raf (Homo sapiens, UniProt P15056); test: AlphaScreen kinase assay, B-Raf; details: read-out: IC50, activity toward kinase B-Raf
T6 construct: purchased Upstate Biotechnology

Kdr = target: T7, Kdr (Homo sapiens, UniProt P35968); test: Z'-Lyte FRET kinase assay (Invitrogen), Kdr; details: read-out: IC50, activity toward kinase Kdr
T7 construct: purchased Invitrogen (assay run by Invitrogen)

Ret = target: T8, Ret (Homo sapiens, UniProt P07949); test: AlphaScreen kinase assay, Ret; details: read-out: IC50, activity toward kinase Ret
T8 construct: P1378.pET-SF BI-PTP RET H661-R1012 HIS; made in house
T8 sequence (P07949 with tags, fused parts or gaps): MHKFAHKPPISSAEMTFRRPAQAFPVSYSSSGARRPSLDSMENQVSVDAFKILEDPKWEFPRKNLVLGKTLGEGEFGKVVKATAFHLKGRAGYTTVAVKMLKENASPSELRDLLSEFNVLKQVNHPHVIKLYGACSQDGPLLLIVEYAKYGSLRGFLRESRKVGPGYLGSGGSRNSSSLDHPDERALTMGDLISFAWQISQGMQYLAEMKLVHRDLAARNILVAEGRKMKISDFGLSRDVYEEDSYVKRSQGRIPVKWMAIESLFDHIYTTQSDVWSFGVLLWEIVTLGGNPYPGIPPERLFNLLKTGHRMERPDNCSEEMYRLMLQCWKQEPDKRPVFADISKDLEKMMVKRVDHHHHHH

Fak = target: T9, Fak (Homo sapiens, UniProt Q05397); test: AlphaScreen kinase assay, Fak; details: read-out: IC50, activity toward kinase Fak
T9 construct: P1358.pFastBacHtb FAK S411-Q686-X; His6 with pFastBacHTb leader (TEV site) (N); made in house; host or cells: Sf9 (baculovirus)

FGFR1 = target: T10, FGFR1 (Homo sapiens, UniProt P11362, C488A/C584S); test: AlphaScreen kinase assay, FGFR1; details: read-out: IC50, activity toward kinase FGFR
T10 construct: P1351.pET N6 BI-PTP FGFR A458-E765-X C488A, C584S; made in house; host or cells: E. coli (PTP1B co-expressed)

Kit = target: T11, Kit (Homo sapiens, UniProt P10721); test: AlphaScreen kinase assay, Kit; details: read-out: IC50, activity toward kinase Kit
T11 construct: P1332.N6 BI PTP KIT M552-K948-X COD; His6 (N); made in house; host or cells: E. coli (PTP1B co-expressed)

c-Raf-1 = target: T12, c-Raf-1 (Homo sapiens, UniProt P04049); test: AlphaScreen kinase assay, c-Raf-1; details: read-out: IC50, activity toward kinase c-Raf-1
T12 construct: purchased Upstate Biotechnology

Flt1 = target: T13, Flt1 (Homo sapiens, UniProt P17948); test: AlphaScreen kinase assay, Flt1; details: read-out: IC50, activity toward kinase Flt1
T13 construct: P1826.pETN6 BI-PTP FLT1 M799-D1165-X WT; His6 (N); made in house; host or cells: E. coli (PTP1B co-expressed)
T13 sequence (P17948 with tags, fused parts or gaps): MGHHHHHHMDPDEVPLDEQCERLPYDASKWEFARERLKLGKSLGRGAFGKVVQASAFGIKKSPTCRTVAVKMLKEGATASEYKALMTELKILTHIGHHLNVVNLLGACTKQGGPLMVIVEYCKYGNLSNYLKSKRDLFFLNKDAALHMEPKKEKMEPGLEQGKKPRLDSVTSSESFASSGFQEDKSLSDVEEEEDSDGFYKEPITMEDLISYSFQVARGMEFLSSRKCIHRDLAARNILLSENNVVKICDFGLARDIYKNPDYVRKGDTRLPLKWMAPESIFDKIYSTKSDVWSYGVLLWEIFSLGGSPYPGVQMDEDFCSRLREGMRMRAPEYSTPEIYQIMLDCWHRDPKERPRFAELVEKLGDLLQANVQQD

Jnk1 = target: T14, Jnk1 (Homo sapiens, UniProt P45983); test: AlphaScreen kinase assay, Jnk1; details: read-out: IC50, activity toward kinase Jnk1
T14 construct: purchased Upstate Biotechnology

Jnk2 = target: T15, Jnk2 (Homo sapiens, UniProt P45984); test: AlphaScreen kinase assay, Jnk2; details: read-out: IC50, activity toward kinase Jnk2
T15 construct: purchased Roche Protein Expression Group (Indianapolis, IN)
In short: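 Bead-proximity format: phosphopeptide links anti-phospho antibody acceptor beads to streptavidin donor beads via biotin tag. Compounds were serially diluted 1:3 (8 points) from 20 mM stocks in DMSO.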

Pyk2 = target: T16, Pyk2 (Homo sapiens, UniProt Q14289); test: AlphaScreen kinase assay, Pyk2; details: read-out: IC50, activity toward kinase Pyk2
T16 construct: purchased Upstate Biotechnology

Jnk3 = target: T17, Jnk3 (Homo sapiens, UniProt P53779); test: AlphaScreen kinase assay, Jnk3; details: read-out: IC50, activity toward kinase Jnk3
T17 construct: purchased Upstate Biotechnology

Measured: IC50

T1 sequence (P15056 with tags, fused parts or gaps V600E): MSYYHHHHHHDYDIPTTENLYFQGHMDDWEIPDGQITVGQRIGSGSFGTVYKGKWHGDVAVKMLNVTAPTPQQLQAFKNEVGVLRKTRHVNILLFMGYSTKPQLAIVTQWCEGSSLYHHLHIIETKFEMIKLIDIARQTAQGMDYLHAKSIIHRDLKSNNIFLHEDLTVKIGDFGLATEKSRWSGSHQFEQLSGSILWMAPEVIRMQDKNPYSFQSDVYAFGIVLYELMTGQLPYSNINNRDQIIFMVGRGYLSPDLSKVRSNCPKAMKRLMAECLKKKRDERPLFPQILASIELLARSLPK
T3 sequence (P12931 with tags, fused parts or gaps): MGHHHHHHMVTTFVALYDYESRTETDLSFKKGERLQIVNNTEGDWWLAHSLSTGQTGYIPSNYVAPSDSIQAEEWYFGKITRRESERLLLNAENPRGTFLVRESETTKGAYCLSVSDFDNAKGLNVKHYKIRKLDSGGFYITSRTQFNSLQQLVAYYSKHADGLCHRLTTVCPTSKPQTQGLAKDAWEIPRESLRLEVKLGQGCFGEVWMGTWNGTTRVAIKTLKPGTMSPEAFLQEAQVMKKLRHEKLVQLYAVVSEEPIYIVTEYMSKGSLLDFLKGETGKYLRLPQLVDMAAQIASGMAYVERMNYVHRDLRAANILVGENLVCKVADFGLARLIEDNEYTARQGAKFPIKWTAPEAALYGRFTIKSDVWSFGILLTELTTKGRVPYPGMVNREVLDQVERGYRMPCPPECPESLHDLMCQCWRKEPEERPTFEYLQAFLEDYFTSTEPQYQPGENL
T7 sequence (P35968 20-1356): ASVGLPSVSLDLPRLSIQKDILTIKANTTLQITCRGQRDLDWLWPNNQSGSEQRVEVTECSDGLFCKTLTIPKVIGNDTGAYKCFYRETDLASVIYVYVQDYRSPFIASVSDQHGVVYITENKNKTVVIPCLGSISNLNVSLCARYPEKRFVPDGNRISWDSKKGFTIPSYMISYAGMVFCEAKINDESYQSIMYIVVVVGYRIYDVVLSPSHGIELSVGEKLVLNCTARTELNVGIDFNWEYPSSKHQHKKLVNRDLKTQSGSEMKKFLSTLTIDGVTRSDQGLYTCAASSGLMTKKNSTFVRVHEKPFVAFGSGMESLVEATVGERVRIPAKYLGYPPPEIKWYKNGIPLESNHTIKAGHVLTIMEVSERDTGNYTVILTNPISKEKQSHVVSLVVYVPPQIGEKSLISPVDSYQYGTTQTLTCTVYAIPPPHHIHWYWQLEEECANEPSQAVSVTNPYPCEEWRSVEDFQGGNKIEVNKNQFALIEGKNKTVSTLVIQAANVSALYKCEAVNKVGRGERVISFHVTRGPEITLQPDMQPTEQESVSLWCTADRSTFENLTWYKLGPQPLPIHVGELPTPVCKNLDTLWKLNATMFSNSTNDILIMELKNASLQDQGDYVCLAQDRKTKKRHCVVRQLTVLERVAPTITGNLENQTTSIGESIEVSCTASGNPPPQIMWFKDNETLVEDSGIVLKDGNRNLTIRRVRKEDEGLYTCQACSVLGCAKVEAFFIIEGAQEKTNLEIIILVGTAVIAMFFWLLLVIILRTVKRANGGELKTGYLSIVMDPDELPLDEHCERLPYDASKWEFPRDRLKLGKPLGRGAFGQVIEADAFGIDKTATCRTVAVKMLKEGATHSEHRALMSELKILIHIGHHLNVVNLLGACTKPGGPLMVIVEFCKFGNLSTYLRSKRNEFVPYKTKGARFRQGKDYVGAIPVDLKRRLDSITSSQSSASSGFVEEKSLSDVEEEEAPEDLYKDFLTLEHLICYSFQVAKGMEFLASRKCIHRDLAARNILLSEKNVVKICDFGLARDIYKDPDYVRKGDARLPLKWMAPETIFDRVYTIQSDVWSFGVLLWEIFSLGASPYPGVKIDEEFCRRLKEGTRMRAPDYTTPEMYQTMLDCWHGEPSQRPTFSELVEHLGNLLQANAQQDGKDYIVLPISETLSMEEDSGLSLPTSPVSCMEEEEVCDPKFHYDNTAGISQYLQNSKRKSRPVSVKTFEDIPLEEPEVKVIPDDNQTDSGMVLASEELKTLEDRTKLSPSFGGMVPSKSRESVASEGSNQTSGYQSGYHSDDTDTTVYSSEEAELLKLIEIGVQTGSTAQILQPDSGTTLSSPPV
T10 sequence (P11362 458-765 C488A/C584S): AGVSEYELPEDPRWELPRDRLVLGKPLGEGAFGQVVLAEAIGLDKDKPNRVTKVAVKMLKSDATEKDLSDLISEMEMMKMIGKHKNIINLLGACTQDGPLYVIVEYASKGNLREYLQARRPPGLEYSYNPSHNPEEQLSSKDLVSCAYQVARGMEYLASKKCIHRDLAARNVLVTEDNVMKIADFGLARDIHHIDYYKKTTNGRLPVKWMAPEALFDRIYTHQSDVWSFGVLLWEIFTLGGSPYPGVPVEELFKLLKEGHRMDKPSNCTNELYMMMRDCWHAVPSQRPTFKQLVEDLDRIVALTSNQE
T5 sequence (P07947 whole entry): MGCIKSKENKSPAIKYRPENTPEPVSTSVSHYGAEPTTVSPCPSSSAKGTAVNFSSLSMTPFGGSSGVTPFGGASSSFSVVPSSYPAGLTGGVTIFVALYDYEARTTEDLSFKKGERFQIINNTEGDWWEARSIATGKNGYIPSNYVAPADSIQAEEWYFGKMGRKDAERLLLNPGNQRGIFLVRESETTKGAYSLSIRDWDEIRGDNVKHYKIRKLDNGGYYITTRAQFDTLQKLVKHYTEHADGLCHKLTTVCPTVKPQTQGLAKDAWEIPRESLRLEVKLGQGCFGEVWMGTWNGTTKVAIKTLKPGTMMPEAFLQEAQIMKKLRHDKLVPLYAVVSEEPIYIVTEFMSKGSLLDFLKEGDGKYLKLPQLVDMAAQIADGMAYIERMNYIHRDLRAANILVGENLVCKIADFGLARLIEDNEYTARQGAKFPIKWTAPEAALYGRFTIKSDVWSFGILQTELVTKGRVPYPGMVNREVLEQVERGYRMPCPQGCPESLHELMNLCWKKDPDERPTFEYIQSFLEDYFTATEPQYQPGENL
T2 sequence (P07333 20-972): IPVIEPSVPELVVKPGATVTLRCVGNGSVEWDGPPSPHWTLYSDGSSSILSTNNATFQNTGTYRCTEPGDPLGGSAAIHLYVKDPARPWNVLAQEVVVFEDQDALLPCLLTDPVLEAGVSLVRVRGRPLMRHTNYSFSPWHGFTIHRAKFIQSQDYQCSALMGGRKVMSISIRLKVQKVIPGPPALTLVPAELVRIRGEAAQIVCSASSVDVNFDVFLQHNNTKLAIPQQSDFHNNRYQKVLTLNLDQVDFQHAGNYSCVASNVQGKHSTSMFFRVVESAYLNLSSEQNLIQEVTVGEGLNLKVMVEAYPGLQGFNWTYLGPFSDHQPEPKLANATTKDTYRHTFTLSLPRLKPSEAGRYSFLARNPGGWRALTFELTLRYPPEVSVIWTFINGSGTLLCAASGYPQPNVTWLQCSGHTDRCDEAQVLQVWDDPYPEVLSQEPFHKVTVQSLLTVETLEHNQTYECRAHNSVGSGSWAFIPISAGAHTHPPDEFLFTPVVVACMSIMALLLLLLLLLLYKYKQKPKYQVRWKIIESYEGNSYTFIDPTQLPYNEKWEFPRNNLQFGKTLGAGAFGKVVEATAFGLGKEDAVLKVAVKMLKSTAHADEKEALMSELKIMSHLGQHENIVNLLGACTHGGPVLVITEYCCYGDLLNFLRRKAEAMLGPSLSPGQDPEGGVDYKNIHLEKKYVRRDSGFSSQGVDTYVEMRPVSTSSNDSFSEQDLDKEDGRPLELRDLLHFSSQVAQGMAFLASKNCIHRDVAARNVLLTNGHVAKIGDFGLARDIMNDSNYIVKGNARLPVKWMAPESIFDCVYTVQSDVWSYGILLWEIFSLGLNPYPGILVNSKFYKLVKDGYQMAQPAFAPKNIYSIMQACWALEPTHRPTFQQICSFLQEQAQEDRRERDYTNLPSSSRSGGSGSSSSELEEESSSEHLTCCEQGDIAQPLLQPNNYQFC
T6 sequence (P15056 whole entry): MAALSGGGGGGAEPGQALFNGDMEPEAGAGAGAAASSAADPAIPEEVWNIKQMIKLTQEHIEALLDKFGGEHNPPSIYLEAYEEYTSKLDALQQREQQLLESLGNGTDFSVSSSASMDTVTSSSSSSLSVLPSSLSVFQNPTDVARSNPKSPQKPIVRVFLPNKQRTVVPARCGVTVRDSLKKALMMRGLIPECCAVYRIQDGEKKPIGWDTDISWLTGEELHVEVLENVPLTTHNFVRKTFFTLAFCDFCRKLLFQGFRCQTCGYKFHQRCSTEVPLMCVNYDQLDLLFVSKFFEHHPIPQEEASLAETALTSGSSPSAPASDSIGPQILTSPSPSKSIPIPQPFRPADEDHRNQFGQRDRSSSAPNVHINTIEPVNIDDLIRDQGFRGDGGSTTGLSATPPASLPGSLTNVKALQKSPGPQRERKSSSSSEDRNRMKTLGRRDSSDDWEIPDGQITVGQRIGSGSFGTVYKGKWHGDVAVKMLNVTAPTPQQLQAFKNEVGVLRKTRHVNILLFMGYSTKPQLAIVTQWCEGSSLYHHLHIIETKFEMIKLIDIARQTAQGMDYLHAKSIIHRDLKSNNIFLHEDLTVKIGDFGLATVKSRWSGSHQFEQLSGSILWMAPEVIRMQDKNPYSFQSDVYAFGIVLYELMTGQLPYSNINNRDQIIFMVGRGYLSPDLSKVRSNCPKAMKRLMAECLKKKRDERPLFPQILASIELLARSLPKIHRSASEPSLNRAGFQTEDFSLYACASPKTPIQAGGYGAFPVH
T9 sequence (Q05397 411-686): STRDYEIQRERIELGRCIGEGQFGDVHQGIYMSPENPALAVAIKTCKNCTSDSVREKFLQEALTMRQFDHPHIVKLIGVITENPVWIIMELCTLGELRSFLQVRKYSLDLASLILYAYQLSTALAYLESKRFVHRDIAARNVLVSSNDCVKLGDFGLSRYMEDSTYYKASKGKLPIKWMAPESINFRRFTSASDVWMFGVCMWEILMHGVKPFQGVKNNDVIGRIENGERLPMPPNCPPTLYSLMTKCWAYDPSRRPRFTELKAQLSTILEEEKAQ

O=C(c1ccc(NCc2cccs2)nc1)c1c[nH]c2ncccc12 [Compound P-0237]
≤ 10 µM: B-Raf V600E | Fms | Src | Stk6 | Yes

COC(=O)Nc1ccc(F)c(C(O)c2c[nH]c3ncc(-c4cccnc4)cc23)c1F (centres unmarked) [Compound P-0065, {2,4-difluoro-3-[hydroxy-(5-pyridin-3-yl-1H-pyrrolo[2,3b]pyridin-3-yl)-methyl]-phenyl}-carbamic acid methyl ester]
≤ 10 µM: B-Raf | Kdr | Ret | Stk6 | Yes

COc1cccc(-c2ccc3c(CNS(=O)(=O)c4ccc(C)cc4)c[nH]c3n2)c1 [Compound P-0209]
≤ 10 µM: Fak | Src | Yes

C(=C\c1c[nH]c2ncccc12)/c1ccc(NCc2ccccc2)cc1 [Compound P-0283]
≤ 10 µM: Stk6 | Yes

O=C(c1cccc(O)c1)c1c[nH]c2ncc(-c3ccccc3)cc12 [Compound P-0230]
≤ 10 µM: Kdr | Yes

COc1ccc(F)c(C(=O)c2c[nH]c3nccc(Cl)c23)c1 [Compound P-0175]
≤ 10 µM: B-Raf V600E | FGFR1 | Fms | Kdr | Kit | Ret | Yes

COc1cccc(C(O)c2c[nH]c3ncc(-c4cccs4)cc23)c1 (centres unmarked) [Compound P-0161]
≤ 10 µM: Kdr | Yes

CS(=O)(=O)Nc1ccc(F)c(C(=O)c2c[nH]c3ncc(Br)cc23)c1F [Compound P-0162, N-[3-(5-Bromo-1H-pyrrolo[2,3-b]pyridine-3-carbonyl)-2,4-difluoro-phenyl]-methanesulfonamide]
≤ 10 µM: B-Raf | B-Raf V600E | c-Raf-1 | Kdr | Stk6 | Yes

COC(=O)Nc1ccc(F)c(C(=O)c2c[nH]c3ncc(-c4cccnc4)cc23)c1F [Compound P-0486, [2,4-Difluoro-3-(5-pyridin-3-yl-1H-pyrrolo[2,3-b]pyridine-3-carbonyl)-phenyl]-carbamic acid methyl ester]
not listed: Src | Stk6 | Yes | Kdr | Kit | Jnk3
≤ 10 µM: all other assays above

CC(=O)Oc1cccc(C(=O)c2c[nH]c3ncc(Br)cc23)c1C [Compound P-0271]
≤ 10 µM: B-Raf | B-Raf V600E | FGFR1 | Yes

Nc1cccc(-c2cnc3[nH]cc(Cc4ccccc4F)c3c2)c1 [Compound P-1349]
≤ 10 µM: B-Raf | B-Raf V600E | Fak | FGFR1 | Jnk1 | Jnk3 | Kit | Pyk2 | Src

O=C(c1ccc(NCc2ccccc2)nc1)c1c[nH]c2ncccc12 [Compound P-0483]
≤ 10 µM: B-Raf V600E | FGFR1 | Flt1 | Fms | Jnk3 | Src | Yes

COc1ccc(-c2cnc3[nH]cc(C#Cc4ccccc4)c3c2)cc1OC [Compound P-0153]
≤ 10 µM: B-Raf V600E | Stk6 | Yes

O=C(c1ccc(NCc2cccc(F)c2)nc1)c1c[nH]c2ncccc12 [Compound P-0327]
≤ 10 µM: Fms | Yes

c1csc(CNc2ccc(Cc3c[nH]c4ncccc34)cn2)c1 [Compound P-0129]
≤ 10 µM: B-Raf V600E | FGFR1 | Fms | Kdr | Stk6 | Yes
